# According to ChEMBL document CHEMBL5291721, “A preclinical secondary pharmacology resource illuminates target-adverse drug reaction associations of marketed drugs” (Nat Commun, 2023):
# Assays:
# [1] = biological target: T1, Muscarinic acetylcholine receptor M2 (Homo sapiens, UniProt P08172); format: functional, cell-based
# T1 sequence (P08172 whole entry): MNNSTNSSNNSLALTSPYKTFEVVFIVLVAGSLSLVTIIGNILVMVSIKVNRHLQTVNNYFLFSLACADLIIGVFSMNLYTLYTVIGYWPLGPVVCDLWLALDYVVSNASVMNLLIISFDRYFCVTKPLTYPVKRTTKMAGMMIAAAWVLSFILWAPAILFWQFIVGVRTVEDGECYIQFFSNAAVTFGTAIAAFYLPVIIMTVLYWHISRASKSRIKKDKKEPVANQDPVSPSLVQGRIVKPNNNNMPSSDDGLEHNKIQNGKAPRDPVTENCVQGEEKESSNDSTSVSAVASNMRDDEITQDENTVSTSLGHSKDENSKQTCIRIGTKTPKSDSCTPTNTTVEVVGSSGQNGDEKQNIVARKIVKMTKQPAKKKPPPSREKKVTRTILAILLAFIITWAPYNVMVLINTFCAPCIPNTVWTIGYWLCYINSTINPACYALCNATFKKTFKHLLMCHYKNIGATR
# [2] = biological target: Beta-1 adrenergic receptor (Homo sapiens, UniProt P08588); format: functional
# [3] = biological target: Beta-2 adrenergic receptor (Homo sapiens, UniProt P07550); format: functional, cell-based
# [4] = biological target: 5-hydroxytryptamine receptor 2A (Homo sapiens, UniProt P28223); format: functional, cell-based
# Mu-type opioid receptor = Mu-type opioid receptor (Homo sapiens, UniProt P35372)
# [5] = biological target: T2, Sodium-dependent serotonin transporter (Homo sapiens, UniProt P31645)
# [6] = biological target: Kappa-type opioid receptor (Homo sapiens, UniProt P41145)
# [7] = biological target: T3, Gastrin/cholecystokinin type B receptor (Homo sapiens, UniProt P32239)
# T3 sequence (P32239 whole entry): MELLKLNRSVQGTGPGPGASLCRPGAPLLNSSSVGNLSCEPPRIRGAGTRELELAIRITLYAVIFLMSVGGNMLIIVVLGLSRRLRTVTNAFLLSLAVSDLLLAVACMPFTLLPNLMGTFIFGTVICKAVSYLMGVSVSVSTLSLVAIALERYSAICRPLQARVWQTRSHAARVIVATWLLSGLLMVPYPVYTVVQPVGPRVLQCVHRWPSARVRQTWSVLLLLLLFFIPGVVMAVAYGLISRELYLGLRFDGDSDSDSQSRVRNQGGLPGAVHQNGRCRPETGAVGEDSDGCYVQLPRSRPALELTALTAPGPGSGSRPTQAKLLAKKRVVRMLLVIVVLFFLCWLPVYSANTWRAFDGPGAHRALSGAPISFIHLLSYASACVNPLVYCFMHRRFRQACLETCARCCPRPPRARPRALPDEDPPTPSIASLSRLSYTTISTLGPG
# [8] = biological target: T4, Neuropeptide Y receptor type 1 (Homo sapiens, UniProt P25929)
# T4 sequence (P25929 whole entry): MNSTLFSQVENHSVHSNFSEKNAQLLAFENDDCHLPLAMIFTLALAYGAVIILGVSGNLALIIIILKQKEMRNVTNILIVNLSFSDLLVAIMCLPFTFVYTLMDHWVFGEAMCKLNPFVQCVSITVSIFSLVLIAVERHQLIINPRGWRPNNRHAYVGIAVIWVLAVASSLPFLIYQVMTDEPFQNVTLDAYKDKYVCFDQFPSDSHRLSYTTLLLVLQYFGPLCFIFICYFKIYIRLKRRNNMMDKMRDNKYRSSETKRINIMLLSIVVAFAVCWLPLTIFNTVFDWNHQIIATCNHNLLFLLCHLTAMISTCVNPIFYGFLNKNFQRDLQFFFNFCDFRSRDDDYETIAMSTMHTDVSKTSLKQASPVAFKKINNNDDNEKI
# [9] = biological target: Voltage-dependent L-type calcium channel subunit alpha-1C (Rattus norvegicus, UniProt P22002); format: functional
# Adenosine receptor A3 = biological target: T5, Adenosine receptor A3 (Homo sapiens, UniProt P0DMS8)
# T5 sequence (P0DMS8 whole entry): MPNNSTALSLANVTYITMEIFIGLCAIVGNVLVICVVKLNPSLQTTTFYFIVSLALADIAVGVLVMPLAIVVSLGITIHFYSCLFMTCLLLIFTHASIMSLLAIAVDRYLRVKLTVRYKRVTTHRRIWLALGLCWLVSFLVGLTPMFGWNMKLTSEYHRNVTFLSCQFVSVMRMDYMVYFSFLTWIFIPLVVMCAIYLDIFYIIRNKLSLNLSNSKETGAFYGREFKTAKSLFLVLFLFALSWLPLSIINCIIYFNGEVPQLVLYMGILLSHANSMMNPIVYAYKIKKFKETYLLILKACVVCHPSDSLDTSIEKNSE
# Prothrombin = Prothrombin (Homo sapiens, UniProt P00734); format: functional
# [10] = biological target: T2, Sodium-dependent serotonin transporter; remark: listed apart in the source
# Estrogen receptor = biological target: T6, Estrogen receptor (Homo sapiens, UniProt P03372)
# T6 sequence (P03372 whole entry): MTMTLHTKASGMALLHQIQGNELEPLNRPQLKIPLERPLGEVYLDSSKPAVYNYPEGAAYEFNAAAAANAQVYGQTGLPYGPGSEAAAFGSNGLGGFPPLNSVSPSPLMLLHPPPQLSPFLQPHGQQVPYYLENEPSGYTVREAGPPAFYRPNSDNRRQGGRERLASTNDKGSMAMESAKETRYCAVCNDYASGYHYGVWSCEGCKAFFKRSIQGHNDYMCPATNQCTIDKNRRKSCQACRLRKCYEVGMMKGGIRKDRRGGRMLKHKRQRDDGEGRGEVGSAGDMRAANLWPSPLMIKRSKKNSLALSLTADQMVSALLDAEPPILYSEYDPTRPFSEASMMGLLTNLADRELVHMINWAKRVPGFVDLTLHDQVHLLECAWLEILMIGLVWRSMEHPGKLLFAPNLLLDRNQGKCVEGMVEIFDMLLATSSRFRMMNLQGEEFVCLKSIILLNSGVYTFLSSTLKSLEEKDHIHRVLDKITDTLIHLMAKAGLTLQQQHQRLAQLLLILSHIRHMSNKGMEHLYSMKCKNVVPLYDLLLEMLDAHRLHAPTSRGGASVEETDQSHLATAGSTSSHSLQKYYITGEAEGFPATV
# Also: assay procedure not described here.
# Sequence of Beta-1 adrenergic receptor (P08588 whole entry): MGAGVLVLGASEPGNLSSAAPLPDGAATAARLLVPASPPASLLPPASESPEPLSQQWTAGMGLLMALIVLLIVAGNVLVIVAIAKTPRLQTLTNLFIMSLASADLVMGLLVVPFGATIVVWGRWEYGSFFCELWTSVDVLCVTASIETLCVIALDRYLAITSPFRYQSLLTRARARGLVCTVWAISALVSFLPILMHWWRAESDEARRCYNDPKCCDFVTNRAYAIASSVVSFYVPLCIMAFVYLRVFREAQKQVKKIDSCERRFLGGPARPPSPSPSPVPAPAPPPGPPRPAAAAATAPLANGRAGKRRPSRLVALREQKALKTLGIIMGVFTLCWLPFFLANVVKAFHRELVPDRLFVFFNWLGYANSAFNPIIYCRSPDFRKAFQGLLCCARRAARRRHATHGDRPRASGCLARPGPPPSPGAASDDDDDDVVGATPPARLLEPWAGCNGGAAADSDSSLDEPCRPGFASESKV
# Sequence of Voltage-dependent L-type calcium channel subunit alpha-1C (P22002 whole entry): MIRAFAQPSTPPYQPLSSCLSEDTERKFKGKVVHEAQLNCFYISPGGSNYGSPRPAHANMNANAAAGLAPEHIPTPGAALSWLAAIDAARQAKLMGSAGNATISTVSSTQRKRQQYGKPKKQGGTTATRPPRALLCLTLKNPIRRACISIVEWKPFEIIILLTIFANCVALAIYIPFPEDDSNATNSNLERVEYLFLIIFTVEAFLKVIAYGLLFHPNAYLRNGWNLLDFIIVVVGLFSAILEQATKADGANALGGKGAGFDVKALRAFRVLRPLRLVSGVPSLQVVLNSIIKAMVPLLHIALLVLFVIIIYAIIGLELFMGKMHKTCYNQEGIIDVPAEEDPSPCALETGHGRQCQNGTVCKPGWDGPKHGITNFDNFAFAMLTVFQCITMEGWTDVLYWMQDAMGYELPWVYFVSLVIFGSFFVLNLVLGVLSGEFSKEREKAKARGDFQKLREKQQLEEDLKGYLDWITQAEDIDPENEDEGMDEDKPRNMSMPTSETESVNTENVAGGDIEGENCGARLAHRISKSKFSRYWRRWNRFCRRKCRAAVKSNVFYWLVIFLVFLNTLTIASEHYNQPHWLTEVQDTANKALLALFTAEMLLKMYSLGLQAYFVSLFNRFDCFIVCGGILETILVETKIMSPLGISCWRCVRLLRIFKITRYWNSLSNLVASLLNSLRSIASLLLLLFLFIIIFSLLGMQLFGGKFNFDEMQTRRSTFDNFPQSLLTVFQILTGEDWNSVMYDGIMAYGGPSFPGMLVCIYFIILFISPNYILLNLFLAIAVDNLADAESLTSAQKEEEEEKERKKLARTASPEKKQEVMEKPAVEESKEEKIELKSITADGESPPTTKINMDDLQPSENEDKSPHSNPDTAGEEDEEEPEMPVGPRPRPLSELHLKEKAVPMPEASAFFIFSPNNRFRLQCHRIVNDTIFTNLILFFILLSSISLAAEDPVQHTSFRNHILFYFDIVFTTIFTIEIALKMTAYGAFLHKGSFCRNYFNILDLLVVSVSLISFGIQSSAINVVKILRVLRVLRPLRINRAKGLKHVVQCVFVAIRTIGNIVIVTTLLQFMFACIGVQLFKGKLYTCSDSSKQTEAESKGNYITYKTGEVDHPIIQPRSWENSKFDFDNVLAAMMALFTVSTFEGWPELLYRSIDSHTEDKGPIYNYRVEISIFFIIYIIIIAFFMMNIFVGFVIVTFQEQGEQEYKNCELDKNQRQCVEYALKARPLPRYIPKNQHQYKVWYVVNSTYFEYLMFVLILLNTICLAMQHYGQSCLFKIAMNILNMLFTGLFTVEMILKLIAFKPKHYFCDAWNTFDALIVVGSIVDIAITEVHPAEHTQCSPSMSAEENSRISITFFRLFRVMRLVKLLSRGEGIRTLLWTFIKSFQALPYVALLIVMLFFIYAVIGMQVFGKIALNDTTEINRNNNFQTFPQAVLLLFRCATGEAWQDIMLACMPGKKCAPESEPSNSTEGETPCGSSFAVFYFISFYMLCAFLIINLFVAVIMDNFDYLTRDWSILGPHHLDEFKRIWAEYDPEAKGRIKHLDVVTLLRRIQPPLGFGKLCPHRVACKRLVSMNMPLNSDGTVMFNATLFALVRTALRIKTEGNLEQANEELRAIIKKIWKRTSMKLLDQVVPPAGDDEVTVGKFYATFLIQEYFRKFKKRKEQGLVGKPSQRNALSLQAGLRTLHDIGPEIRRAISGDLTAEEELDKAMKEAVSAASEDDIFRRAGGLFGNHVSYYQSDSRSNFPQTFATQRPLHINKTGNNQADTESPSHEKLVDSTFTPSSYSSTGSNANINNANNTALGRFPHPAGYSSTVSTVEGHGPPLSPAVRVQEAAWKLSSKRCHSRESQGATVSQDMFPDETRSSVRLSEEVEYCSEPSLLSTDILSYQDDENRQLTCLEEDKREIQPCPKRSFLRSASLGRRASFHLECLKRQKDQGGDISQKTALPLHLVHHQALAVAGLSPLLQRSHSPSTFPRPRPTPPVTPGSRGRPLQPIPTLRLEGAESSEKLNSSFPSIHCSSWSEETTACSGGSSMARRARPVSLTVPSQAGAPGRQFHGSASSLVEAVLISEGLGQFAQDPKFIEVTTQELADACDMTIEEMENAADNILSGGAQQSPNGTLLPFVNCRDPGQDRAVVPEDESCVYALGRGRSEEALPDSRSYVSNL
# Sequence of Mu-type opioid receptor (P35372 whole entry): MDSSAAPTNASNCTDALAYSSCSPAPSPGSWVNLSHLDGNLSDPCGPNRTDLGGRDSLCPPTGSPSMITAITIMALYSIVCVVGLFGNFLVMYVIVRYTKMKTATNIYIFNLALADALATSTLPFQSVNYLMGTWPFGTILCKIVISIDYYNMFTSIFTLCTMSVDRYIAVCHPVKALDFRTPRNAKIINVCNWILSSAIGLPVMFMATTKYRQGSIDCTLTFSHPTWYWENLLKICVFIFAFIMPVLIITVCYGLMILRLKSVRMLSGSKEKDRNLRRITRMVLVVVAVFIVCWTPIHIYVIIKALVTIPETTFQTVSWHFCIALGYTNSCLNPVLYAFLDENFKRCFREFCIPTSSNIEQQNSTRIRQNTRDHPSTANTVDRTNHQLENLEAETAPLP
# Sequence of Kappa-type opioid receptor (P41145 whole entry): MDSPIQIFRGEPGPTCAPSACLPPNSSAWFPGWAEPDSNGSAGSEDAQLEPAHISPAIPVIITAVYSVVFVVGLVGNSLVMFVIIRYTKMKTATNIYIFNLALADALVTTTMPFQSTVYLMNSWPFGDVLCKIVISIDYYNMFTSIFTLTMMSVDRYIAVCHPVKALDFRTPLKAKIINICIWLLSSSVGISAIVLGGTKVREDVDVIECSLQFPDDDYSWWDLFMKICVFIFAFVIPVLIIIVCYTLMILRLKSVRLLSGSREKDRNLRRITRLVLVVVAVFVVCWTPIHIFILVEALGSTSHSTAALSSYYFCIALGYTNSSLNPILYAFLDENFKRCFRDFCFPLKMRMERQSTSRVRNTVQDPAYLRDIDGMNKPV
# T2 sequence (P31645 whole entry): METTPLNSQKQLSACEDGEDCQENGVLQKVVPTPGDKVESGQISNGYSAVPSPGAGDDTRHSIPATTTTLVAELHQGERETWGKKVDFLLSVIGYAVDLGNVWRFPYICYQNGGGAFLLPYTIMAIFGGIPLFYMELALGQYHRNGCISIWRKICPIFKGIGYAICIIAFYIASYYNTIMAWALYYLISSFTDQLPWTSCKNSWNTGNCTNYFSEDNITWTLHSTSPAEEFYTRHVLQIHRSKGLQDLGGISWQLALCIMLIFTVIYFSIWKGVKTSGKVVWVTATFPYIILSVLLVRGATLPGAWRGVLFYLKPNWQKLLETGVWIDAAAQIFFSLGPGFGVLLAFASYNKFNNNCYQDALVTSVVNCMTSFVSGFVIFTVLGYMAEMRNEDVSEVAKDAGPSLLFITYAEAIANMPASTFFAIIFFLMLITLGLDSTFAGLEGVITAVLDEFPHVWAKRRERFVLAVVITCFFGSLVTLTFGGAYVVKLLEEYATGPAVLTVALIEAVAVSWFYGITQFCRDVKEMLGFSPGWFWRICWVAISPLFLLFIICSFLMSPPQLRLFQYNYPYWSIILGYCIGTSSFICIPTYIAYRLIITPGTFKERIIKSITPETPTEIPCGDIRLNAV
# Sequence of 5-hydroxytryptamine receptor 2A (P28223 whole entry): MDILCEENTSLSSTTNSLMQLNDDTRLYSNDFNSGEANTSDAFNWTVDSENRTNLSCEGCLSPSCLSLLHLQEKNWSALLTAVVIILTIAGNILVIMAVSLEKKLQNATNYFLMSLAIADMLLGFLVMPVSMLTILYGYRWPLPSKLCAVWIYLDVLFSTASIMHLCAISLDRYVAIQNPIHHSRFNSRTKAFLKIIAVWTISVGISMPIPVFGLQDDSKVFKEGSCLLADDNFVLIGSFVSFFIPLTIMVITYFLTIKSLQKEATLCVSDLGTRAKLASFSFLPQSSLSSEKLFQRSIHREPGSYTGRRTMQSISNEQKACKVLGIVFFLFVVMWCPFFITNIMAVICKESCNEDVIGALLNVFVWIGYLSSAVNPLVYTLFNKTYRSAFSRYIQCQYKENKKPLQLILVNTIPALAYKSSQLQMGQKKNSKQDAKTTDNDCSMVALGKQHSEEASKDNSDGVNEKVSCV
# Sequence of Beta-2 adrenergic receptor (P07550 whole entry): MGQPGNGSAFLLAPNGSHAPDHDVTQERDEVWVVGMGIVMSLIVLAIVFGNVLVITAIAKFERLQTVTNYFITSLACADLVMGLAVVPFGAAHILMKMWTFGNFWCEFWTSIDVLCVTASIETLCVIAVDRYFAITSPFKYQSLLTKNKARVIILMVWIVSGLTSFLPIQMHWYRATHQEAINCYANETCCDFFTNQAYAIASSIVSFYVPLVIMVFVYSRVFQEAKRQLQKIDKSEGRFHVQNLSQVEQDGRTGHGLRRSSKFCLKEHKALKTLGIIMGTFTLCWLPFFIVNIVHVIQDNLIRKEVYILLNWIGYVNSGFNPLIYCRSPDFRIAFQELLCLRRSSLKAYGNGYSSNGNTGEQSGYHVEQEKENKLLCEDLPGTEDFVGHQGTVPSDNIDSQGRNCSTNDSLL
SMILES,AC50 [1],AC50 [2],AC50 [3],AC50 [4],AC50 (Mu-type opioid receptor),AC50 [5],AC50 [6],AC50 [7],AC50 [8],AC50 [9],AC50 (Adenosine receptor A3),AC50 (Prothrombin),AC50 [10],AC50 (Estrogen receptor)
CCOCC(O)COc1ccc(NC(=O)CC[S+](C)C)cc1 (stereo unspecified),> 30 µM,> 30 µM,> 30 µM,> 30 µM,> 30 µM,> 30 µM,–,–,–,–,–,–,–,–
O=C(O)[C@H]1/C(=C/CO)O[C@@H]2CC(=O)N21 [CLAVULANIC ACID],> 30 µM,> 30 µM,> 30 µM,> 30 µM,> 30 µM,> 30 µM,–,–,–,–,–,–,–,–
CCOC(=O)Nc1ccc(NCc2ccc(F)cc2)nc1N [FLUPIRTINE],> 30 µM,> 30 µM,> 30 µM,> 30 µM,–,> 30 µM,18 µM,> 30 µM,> 30 µM,> 30 µM,–,–,–,–
NCC1(CC(=O)O)CCCCC1 [GABAPENTIN],> 30 µM,> 30 µM,> 30 µM,–,> 30 µM,–,> 10 µM,> 30 µM,> 30 µM,> 10 µM,> 30 µM,> 30 µM,–,–
Nc1c2c(nc3ccccc13)CCCC2O (stereo unspecified) [VELNACRINE],> 30 µM,> 30 µM,> 30 µM,> 30 µM,> 30 µM,> 30 µM,–,–,–,–,–,–,–,–
C#CCN(C)Cc1ccccc1 [PARGYLINE],> 30 µM,–,> 30 µM,> 30 µM,–,–,> 30 µM,–,–,–,–,> 30 µM,> 30 µM,> 30 µM
CN(C)CCCC1(c2ccc(F)cc2)OCc2cc(C#N)ccc21 (stereo unspecified) [CITALOPRAM],–,> 10 µM,> 30 µM,–,–,–,> 10 µM,> 30 µM,> 30 µM,> 10 µM,> 30 µM,> 30 µM,–,> 30 µM
CO[C@@H]1[C@@H](OC(N)=O)[C@@H](O)[C@H](Oc2ccc3c(O)c(NC(=O)c4ccc(O)c(CC=C(C)C)c4)c(=O)oc3c2C)OC1(C)C [NOVOBIOCIN],> 30 µM,> 30 µM,> 30 µM,> 30 µM,> 30 µM,> 30 µM,–,–,–,–,–,–,–,–
COc1cc2c(cc1OC)C1CC(=O)C(CC(C)C)CN1CC2 (stereo unspecified) [TETRABENAZINE],> 30 µM,> 30 µM,> 30 µM,> 30 µM,> 30 µM,> 30 µM,–,–,–,–,–,–,–,–
CCC[C@@]1(CCc2ccccc2)CC(O)=C([C@H](CC)c2cccc(NS(=O)(=O)c3ccc(C(F)(F)F)cn3)c2)C(=O)O1,6.3 µM,> 30 µM,> 30 µM,> 30 µM,> 30 µM,> 30 µM,–,–,–,–,–,–,–,–
C[C@]12CCC(=O)C=C1CC[C@H]1[C@@H]3CC[C@](O)(C(=O)CO)[C@@]3(C)C[C@H](O)[C@@]12F [FLUDROCORTISONE],> 30 µM,> 10 µM,> 30 µM,> 30 µM,> 30 µM,> 30 µM,> 10 µM,> 30 µM,> 30 µM,> 10 µM,–,–,–,–
C=CC1=C(C(=O)O)N2C(=O)[C@@H](NC(=O)/C(=N\O)c3csc(N)n3)[C@H]2SC1,> 10 µM,> 30 µM,> 30 µM,> 30 µM,> 30 µM,> 30 µM,> 10 µM,> 30 µM,> 30 µM,> 10 µM,–,–,–,–
CCOC(=O)[C@H](CCc1ccccc1)N[C@@H](C)C(=O)N1Cc2ccccc2C[C@H]1C(=O)O,> 10 µM,> 10 µM,> 30 µM,–,> 10 µM,–,> 10 µM,> 30 µM,> 30 µM,> 10 µM,> 30 µM,> 30 µM,–,> 30 µM
CC(=O)Oc1ccccc1C(=O)O [ASPIRIN],> 30 µM,> 10 µM,> 30 µM,–,> 30 µM,–,> 10 µM,> 30 µM,> 30 µM,> 10 µM,> 30 µM,> 30 µM,–,> 30 µM
CC(C)(CO)c1cc2cc(NC(=O)C3(c4ccc5c(c4)OC(F)(F)O5)CC3)c(F)cc2n1C[C@@H](O)CO [TEZACAFTOR],> 30 µM,> 30 µM,> 30 µM,> 30 µM,> 30 µM,> 30 µM,–,–,–,–,–,–,–,–
CCN(CC)CCn1c(=O)c(Cc2ccc(OC)cc2)nc2ccccc21 [CAROVERINE],> 30 µM,> 30 µM,> 30 µM,> 30 µM,–,> 30 µM,5.34 µM,> 30 µM,> 30 µM,> 30 µM,–,–,–,–
Cc1c(C)c2c(c(C)c1O)CCC(C)(COc1ccc(CC3SC(=O)NC3=O)cc1)O2 (stereo unspecified) [TROGLITAZONE],–,20 µM,> 30 µM,–,> 30 µM,–,18 µM,> 30 µM,> 30 µM,21 µM,3.29 µM,> 30 µM,–,> 30 µM
c1cnc2cc3c(cc2n1)[C@@H]1CNC[C@H]3C1 [VARENICLINE],> 30 µM,> 30 µM,> 30 µM,> 30 µM,> 30 µM,> 30 µM,–,–,–,–,–,–,–,–
Cn1cnc2c(F)c(Nc3ccc(Br)cc3F)c(C(=O)NOCCO)cc21 [BINIMETINIB],> 30 µM,> 30 µM,> 30 µM,> 30 µM,> 30 µM,> 30 µM,–,–,–,–,–,–,–,–
OCCOCCN1CCN(C(c2ccccc2)c2ccc(Cl)cc2)CC1 (stereo unspecified) [HYDROXYZINE],> 10 µM,> 10 µM,> 30 µM,> 30 µM,> 30 µM,> 10 µM,8.65 µM,> 30 µM,> 30 µM,> 10 µM,–,–,–,–
C[C@@H](O)[C@H]1C(=O)N2C(C(=O)O)=C(SCCN=CN)C[C@H]12 [IMIPENEM ANHYDROUS],> 300 µM,> 300 µM,> 300 µM,> 300 µM,> 300 µM,> 300 µM,–,–,–,–,–,–,–,–
